Measurements from the supplement of paper PMC6045584.
± gives the standard deviation of the averaged measurements.

Columns and labels:
[1] = compound: CO[C@H]1C[C@@H]2CC[C@@H](C)[C@@](O)(O2)C(=O)C(=O)N2CCCC[C@H]2C(=O)O[C@H]([C@H](C)C[C@@H]2CC[C@@H](OCCO)[C@H](OC)C2)CC(=O)[C@H](C)/C=C(\C)[C@@H](O)[C@@H](OC)C(=O)[C@H](C)C[C@H](C)/C=C/C=C/C=C/1C [EVEROLIMUS]; assay: surviving fraction relative to DMSO-only wells; higher = less growth inhibition; details: exposure time: 5 days
Summary of the method: (§1)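 Five days of continuous inhibitor exposure, at 0.5, 1, 5, 10, 50, 100, 500 and 1000 nM, followed a 24-hour period after log-phase tumour cell lines were seeded at 250–500 cells per well in 384-well plates. Surviving fraction was derived from CellTiter-Glo luminescence relative to the median of DMSO-only wells. Plates were read after 10 minutes at room temperature, and lines screened three times were kept only if replicate Pearson r >0.7 and median Z' >0.3.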

[2] = compound: C#Cc1cccc(Nc2ncnc3cc(OCCOC)c(OCCOC)cc23)c1 [ERLOTINIB]; assay: as above; details: exposure time: 5 days
Summary of the method: as §1

[3] = compound: Cc1nc(Nc2n[nH]c3c2CN(C(=O)N[C@H](CN(C)C)c2ccccc2)C3(C)C)c2sccc2n1; assay: area under dose-response curve of surviving fraction (unscaled, Aref=0) (surviving fraction x log10(nM)); higher = more resistant; details: exposure time: 5 days; dose range 0.5-1000 nM
Summary of the method: (§2)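 Surviving fractions were fitted by 3-parameter logistic regression in the drc R package to give dose-response survival curves. They came from tumour cell lines treated for five days with eight inhibitor concentrations from 0.5 to 1000 nM and read by CellTiter-Glo luminescence against DMSO-only wells. The area under the curve is the unscaled activity area. It was calculated over log10 dose with Aref = 0.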

[4] = compound: CCC1=C[C@@H]2CN(C1)Cc1c([nH]c3ccccc13)[C@@](C(=O)OC)(c1cc3c(cc1OC)N(C)[C@H]1[C@@](O)(C(=O)OC)[C@H](OC(C)=O)[C@]4(CC)C=CCN5CC[C@]31[C@@H]54)C2 [VINORELBINE]; assay: as above; details: exposure time: 5 days; dose range 0.5-1000 nM
Summary of the method: as §2

[5] = compound: Nc1ccn([C@@H]2O[C@H](CO)[C@@H](O)C2(F)F)c(=O)n1 [GEMCITABINE]; assay: as above; details: exposure time: 5 days; dose range 0.5-1000 nM
Summary of the method: as §2

[6] = compound: COc1cc([C@@H]2c3cc4c(cc3[C@@H](O[C@@H]3O[C@@H]5CO[C@@H](C)O[C@H]5[C@H](O)[C@H]3O)[C@H]3COC(=O)[C@H]23)OCO4)cc(OC)c1O [ETOPOSIDE]; assay: as above; details: exposure time: 5 days; dose range 0.5-1000 nM
Summary of the method: as §2

JIMT1 BREAST
surviving fraction ([1]; 0.5 nM): 0.752 ± 0.021 | surviving fraction ([1]; 1 nM): 0.663 ± 0.014 | surviving fraction ([1]; 5 nM): 0.571 ± 0.034 | surviving fraction ([1]; 10 nM): 0.561 ± 0.022 | surviving fraction ([1]; 50 nM): 0.56 ± 0.034 | surviving fraction ([1]; 100 nM): 0.55 ± 0.03 | surviving fraction ([1]; 500 nM): 0.5 ± 0.016 | surviving fraction ([1]; 1000 nM): 0.494 ± 0.036 | surviving fraction ([2]; 0.5 nM): 1 ± 0.012 | surviving fraction ([2]; 1 nM): 0.994 ± 0.044 | surviving fraction ([2]; 10 nM): 0.9948 ± 0.0084 | surviving fraction ([2]; 50 nM): 1 ± 0.015 | surviving fraction ([2]; 100 nM): 1.02 ± 0.076 | surviving fraction ([2]; 500 nM): 0.809 ± 0.025 | surviving fraction ([2]; 1000 nM): 0.731 ± 0.031 | area under dose-response curve [3]: 2.28 | area under dose-response curve [4]: 1.24 | area under dose-response curve [5]: 1.44 | area under dose-response curve [6]: 3.23

JURKAT HAEMATOPOIETIC AND LYMPHOID TISSUE
surviving fraction ([1]; 0.5 nM): 0.988 ± 0.023 | surviving fraction ([1]; 1 nM): 0.917 ± 0.041 | surviving fraction ([1]; 5 nM): 0.572 ± 0.0079 | surviving fraction ([1]; 10 nM): 0.557 ± 0.033 | surviving fraction ([1]; 50 nM): 0.433 ± 0.029 | surviving fraction ([1]; 100 nM): 0.396 ± 0.034 | surviving fraction ([1]; 500 nM): 0.326 ± 0.021 | surviving fraction ([1]; 1000 nM): 0.275 ± 0.018 | surviving fraction ([2]; 0.5 nM): 1.05 ± 0.025 | surviving fraction ([2]; 5 nM): 1.05 ± 0.037 | surviving fraction ([2]; 10 nM): 1.03 ± 0.041 | surviving fraction ([2]; 50 nM): 0.989 ± 0.035 | surviving fraction ([2]; 100 nM): 1.01 ± 0.015 | surviving fraction ([2]; 500 nM): 0.988 ± 0.015 | surviving fraction ([2]; 1000 nM): 1.01 ± 0.038 | area under dose-response curve [3]: 0.653 | area under dose-response curve [4]: 1.24 | area under dose-response curve [5]: 1.01 | area under dose-response curve [6]: 2.15

LM7 BONE
surviving fraction ([1]; 0.5 nM): 0.934 ± 0.053 | surviving fraction ([1]; 1 nM): 0.87 ± 0.056 | surviving fraction ([1]; 5 nM): 0.803 ± 0.1 | surviving fraction ([1]; 10 nM): 0.785 ± 0.12 | surviving fraction ([1]; 50 nM): 0.77 ± 0.085 | surviving fraction ([1]; 100 nM): 0.752 ± 0.046 | surviving fraction ([1]; 500 nM): 0.674 ± 0.087 | surviving fraction ([1]; 1000 nM): 0.609 ± 0.044 | surviving fraction ([2]; 0.5 nM): 1.09 ± 0.1 | surviving fraction ([2]; 1 nM): 0.989 ± 0.043 | surviving fraction ([2]; 5 nM): 1.2 ± 0.043 | surviving fraction ([2]; 10 nM): 1.06 ± 0.051 | surviving fraction ([2]; 50 nM): 1.23 ± 0.061 | surviving fraction ([2]; 100 nM): 1.15 ± 0.098 | surviving fraction ([2]; 500 nM): 0.932 ± 0.058 | area under dose-response curve [3]: 1.39 | area under dose-response curve [4]: 1.45 | area under dose-response curve [5]: 1.12 | area under dose-response curve [6]: 3.06

MCF7 BREAST
surviving fraction ([1]; 0.5 nM): 0.673 ± 0.049 | surviving fraction ([1]; 1 nM): 0.597 ± 0.058 | surviving fraction ([1]; 5 nM): 0.502 ± 0.046 | surviving fraction ([1]; 10 nM): 0.495 ± 0.024 | surviving fraction ([1]; 50 nM): 0.527 ± 0.011 | surviving fraction ([1]; 100 nM): 0.505 ± 0.012 | surviving fraction ([1]; 500 nM): 0.504 ± 0.021 | surviving fraction ([1]; 1000 nM): 0.514 ± 0.024 | surviving fraction ([2]; 0.5 nM): 0.942 ± 0.022 | surviving fraction ([2]; 1 nM): 0.9629 ± 0.007 | surviving fraction ([2]; 5 nM): 0.993 ± 0.044 | surviving fraction ([2]; 10 nM): 0.953 ± 0.053 | surviving fraction ([2]; 50 nM): 1.084 ± 0.0061 | surviving fraction ([2]; 100 nM): 1.03 ± 0.018 | surviving fraction ([2]; 500 nM): 1.03 ± 0.042 | area under dose-response curve [3]: 2.09 | area under dose-response curve [4]: 2.07 | area under dose-response curve [5]: 1.94 | area under dose-response curve [6]: 2.83

MDAMB231 BREAST
surviving fraction ([1]; 0.5 nM): 0.779 ± 0.021 | surviving fraction ([1]; 1 nM): 0.73 ± 0.028 | surviving fraction ([1]; 5 nM): 0.621 ± 0.029 | surviving fraction ([1]; 10 nM): 0.5901 ± 0.005 | surviving fraction ([1]; 50 nM): 0.591 ± 0.022 | surviving fraction ([1]; 100 nM): 0.575 ± 0.019 | surviving fraction ([1]; 500 nM): 0.541 ± 0.038 | surviving fraction ([1]; 1000 nM): 0.521 ± 0.038 | surviving fraction ([2]; 0.5 nM): 1.01 ± 0.028 | surviving fraction ([2]; 1 nM): 0.997 ± 0.013 | surviving fraction ([2]; 5 nM): 1.02 ± 0.019 | surviving fraction ([2]; 10 nM): 1.02 ± 0.011 | surviving fraction ([2]; 50 nM): 1.04 ± 0.019 | surviving fraction ([2]; 100 nM): 1.06 ± 0.027 | surviving fraction ([2]; 500 nM): 1.06 ± 0.028 | surviving fraction ([2]; 1000 nM): 1.03 ± 0.029 | area under dose-response curve [3]: 1.79 | area under dose-response curve [4]: 1.77 | area under dose-response curve [5]: 2.29 | area under dose-response curve [6]: 3.08

MDAMB361 BREAST
surviving fraction ([1]; 0.5 nM): 0.739 ± 0.061 | surviving fraction ([1]; 1 nM): 0.815 ± 0.098 | surviving fraction ([1]; 5 nM): 0.697 ± 0.0076 | surviving fraction ([1]; 10 nM): 0.631 ± 0.049 | surviving fraction ([1]; 50 nM): 0.62 ± 0.028 | surviving fraction ([1]; 100 nM): 0.584 ± 0.0067 | surviving fraction ([1]; 500 nM): 0.547 ± 0.015 | surviving fraction ([1]; 1000 nM): 0.543 ± 0.039 | surviving fraction ([2]; 0.5 nM): 0.873 ± 0.095 | surviving fraction ([2]; 1 nM): 0.849 ± 0.05 | surviving fraction ([2]; 5 nM): 0.83 ± 0.037 | surviving fraction ([2]; 10 nM): 0.869 ± 0.011 | surviving fraction ([2]; 500 nM): 0.913 ± 0.091 | surviving fraction ([2]; 1000 nM): 0.827 ± 0.033 | area under dose-response curve [3]: 2.83 | area under dose-response curve [4]: 2.09 | area under dose-response curve [5]: 2.69 | area under dose-response curve [6]: 3.08

MDAMB436 BREAST
surviving fraction ([1]; 0.5 nM): 0.7 ± 0.022 | surviving fraction ([1]; 1 nM): 0.655 ± 0.044 | surviving fraction ([1]; 5 nM): 0.598 ± 0.027 | surviving fraction ([1]; 10 nM): 0.606 ± 0.039 | surviving fraction ([1]; 50 nM): 0.577 ± 0.025 | surviving fraction ([1]; 100 nM): 0.589 ± 0.046 | surviving fraction ([1]; 500 nM): 0.633 ± 0.057 | surviving fraction ([1]; 1000 nM): 0.558 ± 0.061 | surviving fraction ([2]; 0.5 nM): 0.987 ± 0.03 | surviving fraction ([2]; 1 nM): 1.08 ± 0.073 | surviving fraction ([2]; 5 nM): 1.07 ± 0.091 | surviving fraction ([2]; 10 nM): 1.05 ± 0.15 | surviving fraction ([2]; 50 nM): 1.05 ± 0.14 | surviving fraction ([2]; 100 nM): 0.941 ± 0.049 | surviving fraction ([2]; 500 nM): 0.932 ± 0.066 | surviving fraction ([2]; 1000 nM): 0.811 ± 0.045 | area under dose-response curve [3]: 2.55 | area under dose-response curve [4]: 1.99 | area under dose-response curve [5]: 1.85 | area under dose-response curve [6]: 2.79

MDAMB453 BREAST
surviving fraction ([1]; 0.5 nM): 0.941 ± 0.11 | surviving fraction ([1]; 1 nM): 0.75 ± 0.07 | surviving fraction ([1]; 5 nM): 0.461 ± 0.0079 | surviving fraction ([1]; 10 nM): 0.369 ± 0.037 | surviving fraction ([1]; 50 nM): 0.339 ± 0.035 | surviving fraction ([1]; 100 nM): 0.305 ± 0.018 | surviving fraction ([1]; 500 nM): 0.301 ± 0.024 | surviving fraction ([1]; 1000 nM): 0.284 ± 0.011 | surviving fraction ([2]; 0.5 nM): 1.11 ± 0.065 | surviving fraction ([2]; 1 nM): 1.05 ± 0.029 | surviving fraction ([2]; 5 nM): 1.11 ± 0.057 | surviving fraction ([2]; 10 nM): 1.088 ± 0.0092 | surviving fraction ([2]; 50 nM): 1.09 ± 0.065 | surviving fraction ([2]; 100 nM): 1.06 ± 0.022 | surviving fraction ([2]; 1000 nM): 1.01 ± 0.026 | area under dose-response curve [3]: 1.76 | area under dose-response curve [4]: 1.31 | area under dose-response curve [5]: 1.47 | area under dose-response curve [6]: 3.71
